From ChEMBL document CHEMBL3137667, “[Drug-induced liver injury; fourteenth updated edition of the bibliographic database of liver injuries and related drugs]” (Gastroenterol Clin Biol, 2004)

How the values were obtained:
[1] = human
[2] = human; remark: listed apart in the source
[3] = Highest frequency of acute liver toxicity observed during clinical trials, expressed as a percentage. [column '% AIGUE' in source]; conditions: human
[4] = Highest frequency of moderate liver toxicity observed during clinical trials, expressed as a percentage. [column '% BIOL' in source]; conditions: human
[5] = human; remark: listed apart in the source
[6] = human, serum, 4383 h
[7] = human; remark: listed apart in the source
[8] = human; remark: listed apart in the source
[9] = human, serum
[10] = human; remark: listed apart in the source
[11] = human, serum; remark: listed apart in the source
[12] = human; remark: listed apart in the source
[13] = human; remark: listed apart in the source
[14] = human; remark: listed apart in the source
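Throughout, for Hepatotoxicity (association with vascular disease): count of indexed literature references reporting vascular liver injury in humans, e.g. peliosis hepatitis, hepatic veno-occlusive disease or Budd-Chiari syndrome.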
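Throughout, for Hepatotoxicity (benign tumour): value is a count of indexed literature references citing a benign tumour confirmed by histopathology.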
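Throughout, for Hepatotoxicity (choleostasis): human cholestatic liver injury, shown by histopathology or by peak ALT or AST elevation over alkaline phosphatase ratio below 2, value counts indexed literature reports.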
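Throughout, for Hepatotoxicity (chronic liver disease): chronic liver injury confirmed by histopathology or persistently raised serum aminotransferase activity beyond 6 months, value given as the count of indexed literature references.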
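Throughout, for Hepatotoxicity (cirrhosis): value is a count of indexed literature references reporting cirrhosis confirmed by histopathology.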
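Throughout, for Hepatotoxicity (cytolytic): human cytolytic liver injury, shown by histopathology or by a ratio above 5 of peak ALT or AST elevation to alkaline phosphatase elevation, value counts indexed references.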
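Throughout, for Hepatotoxicity (granulomatous hepatitis): value is a count of indexed literature references reporting granulomatous liver disease confirmed by histopathology.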
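Throughout, for Hepatotoxicity (malignant tumour): malignant tumour confirmed by histopathology, value gives the count of indexed literature references reporting it.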
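Throughout, for Hepatotoxicity (severe hepatitis): human clinical data: severe hepatitis, meaning potentially life-threatening liver failure or clinically observed cases, the value counts how many indexed literature references report it.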
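Throughout, for Hepatotoxicity (steatosis): steatosis confirmed by histopathology, value is the count of indexed references.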

SMILES	Hepatotoxicity (malignant tumour) [1]	Hepatotoxicity (cytolytic) [2]	Hepatotoxicity (acute) [3] [%]	Hepatotoxicity (moderate) [4] [%]	Hepatotoxicity (choleostasis) [5]	Hepatotoxicity (chronic liver disease) [6]	Hepatotoxicity (benign tumour) [7]	Hepatotoxicity (steatosis) [8]	Hepatotoxicity (moderate) [9]	Hepatotoxicity (severe hepatitis) [10]	Hepatotoxicity (acute) [11]	Hepatotoxicity (granulomatous hepatitis) [12]	Hepatotoxicity (cirrhosis) [13]	Hepatotoxicity (association with vascular disease) [14]
CC1(C)S[C@@H]2[C@H](N3C(=O)[C@@H](c4ccccc4)NC3(C)C)C(=O)N2[C@H]1C(=O)O [HETACILLIN]	0	1	0	0	0	0	0	0	0	0	1	0	0	0
CC(=O)NCCCCCCNC(C)=O [HEXAMETHYLENEBISACETAMIDE]	0	1	0	0	0	0	0	0	0	0	1	0	0	0
CN1CCCN(C(c2ccccc2)c2ccc(Cl)cc2)CC1 (stereo not drawn) [HOMOCHLORCYCLIZINE]	0	1	0	0	1	0	0	0	0	0	1	0	0	0
CC(=O)[C@@]1(O)CC[C@H]2[C@@H]3CCC4=CC(=O)CC[C@]4(C)[C@H]3CC[C@@]21C [HYDROXYPROGESTERONE]	0	0	0	0	1	0	0	0	0	0	1	0	0	0
CCCCCN(C)CCC(O)(P(=O)(O)O)P(=O)(O)O [IBANDRONIC ACID]	0	0	0	0.6	0	0	0	0	1	0	0	0	0	0
CC(C)(N)C(=O)N[C@H](COCc1ccccc1)C(=O)N1CCC2(CC1)CN(S(C)(=O)=O)c1ccccc12 [IBUTAMOREN]	0	0	0	21.4	0	0	0	0	1	0	0	0	0	0
COC1=C(OC)C(=O)C(CCCCCCCCCCO)=C(C)C1=O [IDEBENONE]	0	0	0	2.3	0	0	0	0	1	0	0	0	0	0
O=P1(NCCCl)OCCCN1CCCl (stereo not drawn) [IFOSFAMIDE]	0	2	6	3.8	0	0	0	0	3	1	2	0	0	0
Cc1cnc(NCCCN(C)C)c2c1[nH]c1ccc3cc(O)ccc3c12 [INTOPLICINE]	0	0	3.8	0	0	0	0	0	0	0	1	0	0	0
O=C(CCOCCOCCOCCOCCC(=O)Nc1c(I)cc(I)c(C(=O)O)c1I)Nc1c(I)cc(I)c(C(=O)O)c1I [IODOXAMIC ACID]	0	0	0	0	0	0	0	0	1	0	1	0	0	0
O=C(COCC(=O)Nc1c(I)cc(I)c(C(=O)O)c1I)Nc1c(I)cc(I)c(C(=O)O)c1I [IOGLYCAMIC ACID]	0	0	0	0	0	0	0	0	1	0	0	0	0	0
O=C(COCCOCCOCC(=O)Nc1c(I)cc(I)c(C(=O)O)c1I)Nc1c(I)cc(I)c(C(=O)O)c1I [IOTROXIC ACID]	0	0	0	0	0	0	0	0	1	0	0	0	0	0
